In patent publication US8349880B2, “Bicyclic compounds for the reduction of beta-amyloid production” (Bristol-Myers Squibb Company, priority 2009, dated 2013):

test system: Aβ1-42 production; test: Cellular assay for inhibition of Aβ1-42 production (H4 APP751 SWE clone 8.20); assay type: cell-based; conditions: 19 h, H4 APP751 SWE clone 8.20 cells, 19 h incubation; read-out: Activity Rating (Aβ42 cellular IC50, given as a number)
Experimental: Cellular assays for inhibition of Aβ1-40 and Aβ1-42 production
H4 cells stably transfected with APP751 containing the Swedish mutation (H4 APP751 SWE clone 8.20, developed at BMS) were maintained in log phase through twice weekly passage at a 1:20 split. For IC50 determinations, 30 μl cells (1.5×10^4 cells/well) in DMEM media containing 0.0125% BSA (Sigma A8412) were plated directly into 384-well compound plates (Costar 3709) containing 0.1 μl serially diluted compound in DMSO. Following incubation for 19 h in 5% CO2 at 37° C., plates were briefly centrifuged (1000 rpm, 5 min). A 10 μl aliquot from each well was transferred to a second assay plate (Costar 3709) for Aβ40 measurements. Antibody cocktails were freshly prepared by dilution into 40 mM Tris-HCl (pH 7.4) with 0.2% BSA and added to assay plates. For Aβ42 measurements, antibodies specific for the Aβ42 neoepitope (565, developed at BMS; conjugated to the Wallac reagent (Perkin Elmer)) and the N-terminal sequence of Aβ peptide (26D6, developed at SIBIA; conjugated to APC (Perkin Elmer)) were mixed and 20 μl of the mixture was added to each well of the incubated cell plate yielding a final concentration of 0.8 ng/well 565 and 75 ng/well 26D6. For the Aβ40 measurements, antibodies specific for the Aβ40 neoepitope (TSD, developed at BMS; conjugated to the Wallac reagent (Perkin Elmer)) and 26D6 as described above were mixed and 20 μl of the mixture was added to the 10 μl aliquots which had been removed previously from the cell plate yielding a final concentration of 1.6 ng/well TSD and 17.5 ng/well 26D6. Assay plates containing antibodies were sealed with aluminum foil and incubated overnight at 4° C. Signal was determined using a Viewlux counter (Perkin Elmer) and IC50 values determined using curve fitting in CurveMaster (Excel Fit based).

Row | Structure (SMILES) | IC50
1 | COc1cc(Nc2nc3n(n2)CCCC[C@@H]3c2ccc(F)cc2)c(F)cc1-n1cnc(C)n1 (single isomer, unassigned) [Example 30] | 47 nM
2 | COc1cc(Nc2nc3n(n2)CCCC[C@H]3c2cc(F)c(F)c(F)c2)ccc1-n1cnc(Cl)c1 (single isomer, unassigned) [Example 51] | 4 nM
3 | Cc1ncn(-c2ccc(Nc3nc4n(n3)CCCC[C@H]4c3ccc(OC(F)(F)F)cc3)cc2F)n1 (single isomer, unassigned) [Example 97] | 9 nM
4 | COc1cc(Nc2nc3n(n2)CCCC[C@H]3c2ccc(OCC(F)(F)F)cc2)ccc1-n1cnc(Cl)c1 (single isomer, unassigned) [Example 106] | 5 nM
5 | COc1cc(Nc2nc3n(n2)CCCC[C@@H]3c2ccc(OCC(F)(F)F)cc2)c(F)cc1-n1cnc(C)n1 (single isomer, unassigned) [Example 118] | 107 nM
6 | C=C1CCn2nc(Nc3ccc(-n4cnc(Cl)c4)c(OC)c3)nc2[C@H](c2ccc(F)cc2)C1 (single isomer, unassigned) [Example 134] | 3 nM
7 | COc1cc(Nc2nc3n(n2)CC[C@](C)(O)C[C@@H]3c2ccc(F)cc2)ccc1-n1cnc(Cl)c1 (single isomer, unassigned) [Example 149, 2,2,2-trifluoroacetate] | 2 nM

same assay, conditions: 19 h, H4 APP751 SWE clone 8.20 cells, 19 h incubation; read-out: Activity Rating (based on Aβ42 cellular IC50 values)

Row | Structure (SMILES) | IC50
8 | COc1cc(Nc2nc3n(n2)CCCC[C@H]3c2ccc(F)cc2F)ccc1-n1cnc(Cl)c1 (single isomer, unassigned) [Example 36] | < 10 nM
9 | COc1cc(Nc2nc3n(n2)CCCC[C@@H]3c2ccc(F)cc2F)ccc1-n1cnc(Cl)c1 (single isomer, unassigned) [Example 37] | < 10 nM
10 | COc1cc(Nc2nc3n(n2)CCCC[C@H]3c2cc(F)cc(F)c2)ccc1-n1cnc(Cl)c1 (single isomer, unassigned) [Example 39] | < 10 nM
11 | COc1cc(Nc2nc3n(n2)CCCC[C@@H]3c2cc(F)cc(F)c2)ccc1-n1cnc(Cl)c1 (single isomer, unassigned) [Example 40] | 10 to 100 nM
12 | COc1cc(Nc2nc3n(n2)CCCC[C@H]3c2cccc(F)c2)ccc1-n1cnc(Cl)c1 (single isomer, unassigned) [Example 45] | < 10 nM
13 | COc1cc(Nc2nc3n(n2)CCCC[C@@H]3c2cccc(F)c2)ccc1-n1cnc(Cl)c1 (single isomer, unassigned) [Example 46] | 10 to 100 nM
14 | COc1cc(Nc2nc3n(n2)CCCC[C@@H]3c2cc(F)c(F)c(F)c2)ccc1-n1cnc(Cl)c1 (single isomer, unassigned) [Example 52] | < 10 nM
15 | COc1cc(Nc2nc3n(n2)CCCC[C@H]3c2cccc(Cl)c2)ccc1-n1cnc(Cl)c1 (single isomer, unassigned) [Example 54] | < 10 nM
16 | COc1cc(Nc2nc3n(n2)CCCC[C@@H]3c2cccc(Cl)c2)ccc1-n1cnc(Cl)c1 (single isomer, unassigned) [Example 55] | < 10 nM
17 | COc1cc(Nc2nc3n(n2)CCCC[C@H]3c2ccccc2F)ccc1-n1cnc(Cl)c1 (single isomer, unassigned) [Example 58] | < 10 nM
18 | COc1cc(Nc2nc3n(n2)CCCC[C@@H]3c2ccccc2F)ccc1-n1cnc(Cl)c1 (single isomer, unassigned) [Example 59] | < 10 nM
19 | COc1cc(Nc2nc3c(s2)CCC[C@H]3c2ccccc2)ccc1-n1cnc(Cl)c1 (single isomer, unassigned) [Example 69] | 10 to 100 nM
20 | COc1cc(Nc2nc3c(s2)CCC[C@@H]3c2ccccc2)ccc1-n1cnc(Cl)c1 (single isomer, unassigned) [Example 70] | 100 to 1000 nM
21 | COc1cc(Nc2nc3n(n2)CCCC[C@H]3c2ccc(F)cc2)ccc1-n1cnc(Cl)n1 (single isomer, unassigned) [Example 87] | < 10 nM
22 | COc1cc(Nc2nc3n(n2)CCCC[C@@H]3c2ccc(F)cc2)ccc1-n1cnc(Cl)n1 (single isomer, unassigned) [Example 88] | 10 to 100 nM
23 | Cc1ncnn1-c1ccc(Nc2nc3n(n2)CCCC[C@H]3c2ccc(F)cc2)cc1F (single isomer, unassigned) [Example 94] | 10 to 100 nM
24 | Cc1ncn(-c2ccc(Nc3nc4n(n3)CCCC[C@@H]4c3ccc(OC(F)(F)F)cc3)cc2F)n1 (single isomer, unassigned) [Example 98] | 10 to 100 nM
25 | Cc1ncnn1-c1ccc(Nc2nc3n(n2)CCCC[C@H]3c2ccc(OC(F)(F)F)cc2)cc1F (single isomer, unassigned) [Example 100] | < 10 nM
26 | Cc1ncnn1-c1ccc(Nc2nc3n(n2)CCCC[C@@H]3c2ccc(OC(F)(F)F)cc2)cc1F (single isomer, unassigned) [Example 101] | 10 to 100 nM
27 | COc1cc(Nc2nc3n(n2)CCCC[C@H]3c2ccc(OC(C)C)cc2)ccc1-n1cnc(Cl)c1 (single isomer, unassigned) [Example 103] | < 10 nM

Row | Structure (SMILES) | IC50
28 | COc1cc(Nc2nc3n(n2)CCCC[C@@H]3c2ccc(OC(C)C)cc2)ccc1-n1cnc(Cl)c1 (single isomer, unassigned) [Example 104] | 10 to 100 nM
29 | COc1cc(Nc2nc3n(n2)CCCC[C@@H]3c2ccc(OCC(F)(F)F)cc2)ccc1-n1cnc(Cl)c1 (single isomer, unassigned) [Example 107] | 10 to 100 nM
30 | Cc1ncnn1-c1ccc(Nc2nc3n(n2)CCCC[C@H]3c2ccc(OCC(F)(F)F)cc2)cc1F (single isomer, unassigned) [Example 111] | < 10 nM
31 | Cc1ncnn1-c1ccc(Nc2nc3n(n2)CCCC[C@@H]3c2ccc(OCC(F)(F)F)cc2)cc1F (single isomer, unassigned) [Example 112] | 10 to 100 nM
32 | Cc1ncn(-c2ccc(Nc3nc4n(n3)CCCC[C@H]4c3ccc(OCC(F)(F)F)cc3)cc2F)n1 (single isomer, unassigned) [Example 114] | 10 to 100 nM
33 | Cc1ncn(-c2ccc(Nc3nc4n(n3)CCCC[C@@H]4c3ccc(OCC(F)(F)F)cc3)cc2F)n1 (single isomer, unassigned) [Example 115] | 10 to 100 nM
34 | Cc1ncnn1-c1ccc(Nc2nc3n(n2)CCCC[C@H]3c2ccc(OCC(F)F)cc2)cc1F (single isomer, unassigned) [Example 120] | 10 to 100 nM
35 | Cc1ncnn1-c1ccc(Nc2nc3n(n2)CCCC[C@@H]3c2ccc(OCC(F)F)cc2)cc1F (single isomer, unassigned) [Example 121] | 100 to 1000 nM
36 | Cc1ncn(-c2ccc(Nc3nc4n(n3)CCC[C@H]4c3ccc(OC(F)(F)F)cc3)cc2F)n1 (single isomer, unassigned) [Example 123] | 100 to 1000 nM
37 | Cc1ncn(-c2ccc(Nc3nc4n(n3)CCC[C@@H]4c3ccc(OC(F)(F)F)cc3)cc2F)n1 (single isomer, unassigned) [Example 124] | 10 to 100 nM
38 | COc1cc(Nc2nc3n(n2)CCCC[C@@H]3c2ccc(OC(F)(F)F)cc2)ccc1-n1cnc(Cl)c1 (single isomer, unassigned) [Example 125] | < 10 nM
39 | C=C1CCn2nc(Nc3ccc(-n4cnc(Cl)c4)c(OC)c3)nc2[C@@H](c2ccc(F)cc2)C1 (single isomer, unassigned) [Example 135] | 10 to 100 nM
40 | COc1cc(Nc2nc3n(n2)CC[C@@](C)(O)C[C@@H]3c2ccc(F)cc2)ccc1-n1cnc(Cl)c1 (single isomer, unassigned) [Example 148] | < 10 nM
41 | COc1cc(Nc2nc3n(n2)CCCC[C@H]3c2ccc(OCC(F)F)cc2)ccc1-n1cnc(Cl)c1 (single isomer, unassigned) [Example 162] | 10 to 100 nM
42 | COc1cc(Nc2nc3n(n2)CCCC[C@@H]3c2ccc(OCC(F)F)cc2)ccc1-n1cnc(Cl)c1 (single isomer, unassigned) [Example 163] | 10 to 100 nM
43 | Cc1ncn(-c2ccc(Nc3nc4n(n3)CCCC[C@H]4c3ccc(OC(F)(F)F)c(F)c3)cc2F)n1 (single isomer, unassigned) [Example 165] | 10 to 100 nM
44 | Cc1ncn(-c2ccc(Nc3nc4n(n3)CCCC[C@@H]4c3ccc(OC(F)(F)F)c(F)c3)cc2F)n1 (single isomer, unassigned) [Example 166] | < 10 nM
45 | COc1cc(Nc2nc3n(n2)CCCC[C@H]3c2ccc(OC(F)(F)F)cc2)cc(F)c1-n1cnc(C)n1 (single isomer, unassigned) [Example 168] | 10 to 100 nM
46 | COc1cc(Nc2nc3n(n2)CCCC[C@@H]3c2ccc(OC(F)(F)F)cc2)cc(F)c1-n1cnc(C)n1 (single isomer, unassigned) [Example 169] | 100 to 1000 nM
47 | COc1cc(Nc2nc3n(n2)CCCC[C@H]3c2ccc(OC(F)(F)F)cc2)c(F)cc1-n1cnc(C)n1 (single isomer, unassigned) [Example 176] | < 10 nM

same assay, conditions: H4 APP751 SWE clone 8.20 cells, 19 h incubation; read-out: Activity Rating (based on Aβ42 cellular IC50 values)

Row | Structure (SMILES) | IC50
48 | COc1cc(Nc2nc3n(n2)CCCC[C@@H]3c2ccc(OC(F)(F)F)cc2)ccc1-n1cnc(Cl)c1 (single isomer, unassigned) [Example 126] | 10 to 100 nM
